Results on 25 compounds are retold here after patent US20110044938A1 (NYCOMED GMBH, priority 2006, published 2011).

In assay [1] the test system is RKO (RKOp27) human colon adenocarcinoma cells. Briefly: Alamar Blue cell viability assay, anti-proliferative/cytotoxic activity on proliferating RKO subclones. The assay is classed as cell-based. Conditions: RKOp27, 72 h, RKO p27 uninduced (proliferating) cells, value = class bound given in Table A, read-out: −logIC50 RKO p27 uninduced (proliferating) (converted). A digest of the protocol: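 Alamar Blue fluorescence (ex 544, em 590 nm) after 72 h compound exposure at 37 °C, 5% CO2, normalised to untreated controls set at 100%. Cells were seeded at 5000 per well and dosed 24 h later with serial semi-logarithmic dilutions in 10% FCS DMEM, four replicates each. −log IC50 [mol/l] was derived from concentration-effect curves.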
Background: Resazurin is reduced to fluorescent resorufin, in cell work by metabolically active cells.

Assay [2] has as its system subclones of RKO colon adenocarcinoma cells (RKOp27 or RKOp21) arrested by Ponasterone A. Nature of the assay: Alamar Blue cell viability assay, cell cycle specific mode of action: cells arrested by ectopic p27Kip1 induced by Ponasterone A versus proliferating cells. Conditions: Homo sapiens, RKO p27 induced (arrested) cells, 10 μM Ponasterone A, 72 hours, value = class bound given in Table A, read-out: −logIC50 RKO p27 induced (arrested) (converted). The assay is classed as cell-based. Put shortly: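 Viability of proliferating versus Ponasterone A (10 μM)-arrested RKOp27/RKOp21 cells after 72 h compound exposure at 37° C, in quadruplicate. Read-out is Alamar Blue fluorescence (544/590 nm) normalised to untreated cells = 100%; values as −log IC50.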

SMILES strings stand for the structures.

In the case of `CCOc1ccccc1CCC(=O)Nc1sc2c(c1C#N)CCC(COC(=O)NCc1conc1C)C2` (centres unmarked) [Example 198, (3-Methyl-isoxazol-4-ylmethyl)-carbamic acid 3-cyano-2-[3-(2-ethoxy-phenyl)-propanoylamino]-4,5,6,7-tetrahydro-benzo[b]thiophen-6-ylmethyl ester], the IC50 in assay [1] is at most 501 nM; in assay [2], at least 100000 nM.

On to `CC(CC(=O)Nc1sc2c(c1C#N)CCC(OC(=O)NCCc1cccnc1)C2)c1ccccc1` (centres unmarked) [Example 290, (2-Pyridin-3-yl-ethyl)-carbamic acid 3-cyano-2-(3-phenyl-butanoyl-amino)-4,5,6,7-tetrahydro-benzo[b]thiophen-6-yl ester], for which the IC50 in assay [1] was at most 501 nM; in assay [2], at least 10000 nM.

`N#Cc1c(NC(=O)/C=C/c2cccnc2)sc2c1CCC(OC(=O)NCCn1ccnc1)C2` (centres unmarked) [Example 37, (2-Imidazol-1-yl-ethyl)-carbamic acid 3-cyano-2-((E)-3-pyridin-3-yl-allanoylamino)-4,5,6,7-tetrahydro-benzo[b]thiophen-6-yl ester]: the IC50 in assay [1] was 501 to 2000 nM; in assay [2] it was at least 100000 nM.

Take `CC(CC(=O)Nc1sc2c(c1C#N)CCC(OC(=O)NCc1nccn1C)C2)c1ccccc1` (centres unmarked) [Example 292, (1-Methyl-1H-imidazol-2-ylmethyl)-carbamic acid 3-cyano-2-(3-phenyl-butanoylamino)-4,5,6,7-tetrahydro-benzo[b] thiophen-6-yl ester]: the IC50 was 501 to 2000 nM in assay [1] and at least 10000 nM in assay [2].

`COc1cccc(CCC(=O)Nc2sc3c(c2C#N)CCC(COC(=O)N2CCCC2)C3)c1` (centres unmarked) [Example 246, Pyrrolidine-1-carboxylic acid 3-cyano-2-[3-(3-methoxy-phenyl)-propanoylamino]-4,5,6,7-tetrahydro-benzo[b]thiophen-6-ylmethyl ester]: the IC50 in assay [1] was at most 501 nM; in assay [2], at least 100000 nM.

As to `N#Cc1c(NC(=O)/C=C/c2cccnc2)sc2c1CCC(OC(=O)NC1COC1)C2` (centres unmarked) [Example 148, Oxetan-3-yl-carbamicacid 3-cyano-2-((E)-3-pyridin-3-yl-allanoylamino)-4,5,6,7-tetrahydro-benzo[b]thiophen-6-yl ester], the IC50 in assay [1] is 501 to 2000 nM; in assay [2] it was at least 100000 nM.

In the case of `N#Cc1c(NC(=O)/C=C/c2cccnc2)sc2c1CCC(COC(=O)n1cccc1)C2` (centres unmarked) [Example 141, Pyrrole-1-carboxylic acid 3-cyano-2-((E)-3-pyridin-3-yl-allanoylamino)-4,5,6,7-tetrahydro-benzo[b]thiophen-6-ylmethyl ester], the IC50 in assay [1] is 501 to 2000 nM; in assay [2], at least 100000 nM.

For `N#Cc1c(NC(=O)/C=C/c2cccnc2)sc2c1CCC(COC(=O)NCC1CCCO1)C2` (centres unmarked) [Example 63, (Tetrahydro-furan-2-ylmethyl)-carbamic acid 3-cyano-2-((E)-3-pyridin-3-yl-allanoylamino)-4,5,6,7-tetrahydro-benzo[b]thiophen-6-ylmethyl ester], the IC50 in assay [1] is 501 to 2000 nM; in assay [2] it was at least 100000 nM.

For `COc1cccc(CCC(=O)Nc2sc3c(c2C#N)CCC(OC(=O)NCc2csc(C)n2)C3)c1` (centres unmarked) [Example 232, (2-Methyl-thiazol-4-ylmethyl)-carbamic acid 3-cyano-2-[3-(3-methoxy-phenyl)-propanoylamino]-4,5,6,7-tetrahydro-benzo[b]thiophen-6-yl ester], the IC50 is 501 to 2000 nM in assay [1] and at least 100000 nM in assay [2].

Turning to `COc1cccc(C(C)CC(=O)Nc2sc3c(c2C#N)CCC(COC(=O)NCC2CCOCC2)C3)c1` (centres unmarked) [Example 328, (Tetrahydro-pyran-4-ylmethyl)-carbamic acid 3-cyano-2-[3-(3-methoxy-phenyl)-butanoyl-amino]-4,5,6,7-tetrahydro-benzo[b]thiophen-6-ylmethyl ester], the IC50 in assay [1] was 501 to 2000 nM; in assay [2], at least 50100 nM.

`COc1cccc(CCC(=O)Nc2sc3c(c2C#N)CCC(OC(=O)NCC2CCOCC2)C3)c1` (centres unmarked) [Example 220]: the IC50 was 501 to 2000 nM in assay [1] and at least 100000 nM in assay [2].

Consider `N#Cc1c(NC(=O)/C=C/c2cccnc2)sc2c1CC[C@H](COC(=O)N1CCC[C@@H](O)C1)C2` [Example 87b, (R)-3-Hydroxy-piperidine-1-carboxylic acid (S)-3-cyano-2-((E)-3-pyridin-3-yl-allanoylamino)-4,5,6,7-tetrahydro-benzo[b]thiophen-6-ylmethyl ester], for which the IC50 in assay [1] was at most 501 nM; in assay [2], at least 100000 nM.

Take `N#Cc1c(NC(=O)/C=C/c2cccnc2)sc2c1CCC(COC(=O)NC1COC1)C2` (centres unmarked) [Example 149, Oxetan-3-yl-carbamic acid 3-cyano-2-((E)-3-pyridin-3-yl-allanoylamino)-4,5,6,7-tetrahydro-benzo[b]thiophen-6-ylmethyl ester]: the results for the IC50 in assay [1] and in assay [2] were 501 to 2000 nM and at least 100000 nM, respectively.

In the case of `CCOc1ccccc1CCC(=O)Nc1sc2c(c1C#N)CCC(COC(=O)NCc1nnc(C)o1)C2` (centres unmarked) [Example 200, (5-Methyl-[1,3,4]oxadiazol-2-ylmethyl)-carbamic acid 3-cyano-2-[3-(2-ethoxy-phenyl)-propanoylamino]-4,5,6,7-tetrahydro-benzo[b]thiophen-6-ylmethyl ester], the IC50 is 501 to 2000 nM in assay [1] and at least 100000 nM in assay [2].

Consider `COc1cccc(CCC(=O)Nc2sc3c(c2C#N)CCC(OC(=O)NCc2cncn2C)C3)c1` (centres unmarked) [Example 265, (3-Methyl-3H-imidazol-4-ylmethyl)-carbamic acid 3-cyano-2-[3-(3-methoxy-phenyl)-propanoylamino]-4,5,6,7-tetrahydro-benzo[b]thiophen-6-yl ester], for which the IC50 in assay [1] was at most 501 nM; in assay [2] it was at least 50100 nM.

Consider `COc1cccc(CCC(=O)Nc2sc3c(c2C#N)CCC(OC(=O)NCc2cc(C)on2)C3)c1` (centres unmarked) [Example 224, (5-Methyl-isoxazol-3-ylmethyl)-carbamic acid 3-cyano-2-[3-(3-methoxy-phenyl)-propanoylamino]-4,5,6,7-tetrahydro-benzo[b]thiophen-6-yl ester], for which the results for the IC50 in assay [1] and in assay [2] were 501 to 2000 nM and at least 100000 nM, respectively.

`COc1cccc(C(C)CC(=O)Nc2sc3c(c2C#N)CCC(COC(=O)NCc2ccccn2)C3)c1` (centres unmarked) [Example 324, Pyridin-2-ylmethyl-carbamic acid 3-cyano-2-[3-(3-methoxy-phenyl)-butanoylamino]-4,5,6,7-tetrahydro-benzo[b] thiophen-6-ylmethyl ester]: the IC50 was 501 to 2000 nM in assay [1] and at least 50100 nM in assay [2].

On to `N#Cc1c(NC(=O)/C=C/c2cccnc2)sc2c1CCC(COC(=O)NCc1ccccc1)C2` (centres unmarked) [Example 7, Benzyl-carbamic acid 3-cyano-2-((E)-3-pyridin-3-yl-allanoylamino)-4,5,6,7-tetrahydro-benzo[b]thiophen-6-ylmethyl ester], for which the IC50 in assay [1] was at most 501 nM; in assay [2] it was at least 100000 nM.

On to `N#Cc1c(NC(=O)/C=C/c2cccnc2)sc2c1CCC(OC(=O)NC1CCOCC1)C2` (centres unmarked) [Example 26, (Tetrahydro-pyran-4-yl)-carbamic acid 3-cyano-2-((E)-3-pyridin-3-yl-allanoylamino)-4,5,6,7-tetrahydro-benzo[b]thiophen-6-yl ester], for which the IC50 in assay [1] was 501 to 2000 nM; in assay [2], at least 100000 nM.

With `CC(CC(=O)Nc1sc2c(c1C#N)CCC(COC(=O)NC(C)c1cccnc1)C2)c1cccnc1` (centres unmarked) [Example 284, (1-Pyridin-3-yl-ethyl)-carbamic acid 3-cyano-2-(3-pyridin-3-yl-butanoyl-amino)-4,5,6,7-tetrahydro-benzo[b]thiophen-6-ylmethyl ester], the IC50 in assay [1] is 501 to 2000 nM; in assay [2] it was at least 50100 nM.

For the compound `N#Cc1c(NC(=O)/C=C/c2cccnc2)sc2c1CCC(OC(=O)N[C@H]1CC[C@H](O)CC1)C2` (stereo partly drawn) [Example 106, trans-4-Hydroxycyclohexyl-carbamic acid 3-cyano-2-((E)-3-pyridin-3-yl-allanoylamino)-4,5,6,7-tetrahydro-benzo[b]thiophen-6-yl ester], the IC50 in assay [1] is 501 to 2000 nM; in assay [2], at least 100000 nM.

For the compound `CC(CC(=O)Nc1sc2c(c1C#N)CCC(OC(=O)NCC1CCCCO1)C2)c1ccccc1` (centres unmarked) [Example 296, (Tetrahydropyran-2-ylmethyl)-carbamic acid 3-cyano-2-(3-phenyl-butanoylamino)-4,5,6,7-tetrahydro-benzo[b]thiophen-6-yl ester], the IC50 in assay [1] was 501 to 2000 nM; in assay [2], at least 50100 nM.

For the compound `N#Cc1c(NC(=O)/C=C/c2cccnc2)sc2c1CCC(COC(=O)N1CCCC1)C2` (centres unmarked) [Example 68, Pyrrolidine-1-carboxylic acid 3-cyano-2-((E)-3-pyridin-3-yl-allanoylamino)-4,5,6,7-tetrahydro-benzo[b]thiophen-6-ylmethyl ester], the IC50 in assay [1] is at most 501 nM; in assay [2], at least 100000 nM.

For `CCOc1ccccc1CCC(=O)Nc1sc2c(c1C#N)CCC(COC(=O)NCc1nccs1)C2` (centres unmarked) [Example 199, Thiazol-2-ylmethyl-carbamic acid 3-cyano-2-[3-(2-ethoxy-phenyl)-propanoylamino]-4,5,6,7-tetrahydro-benzo[b]thiophen-6-ylmethyl ester], the IC50 in assay [1] was at most 501 nM; in assay [2] it was at least 100000 nM.

Consider `Cc1cc(CNC(=O)OC[C@@H]2CCc3c(sc(NC(=O)/C=C/c4cccnc4)c3C#N)C2)no1` [Example 47b, (5-Methyl-isoxazol-3-ylmethyl)-carbamic acid (R)-3-cyano-2-((E)-3-pyridin-3-yl-allanoylamino)-4,5,6,7-tetrahydro-benzo[b]thiophen-6-ylmethyl ester], for which the IC50 in assay [1] was at most 501 nM; in assay [2], at least 100000 nM.
